Measurements as given in patent publication US20210355154A1, “Halogenated Cholesterol Analogues and Methods of Making and Using Same” (THE REGENTS OF THE UNIVERSITY OF MICHIGAN, priority 2018, published 2021).

Tested on: ApoE mouse
Test: PET imaging of [^18F]NP-59 in a control BL6 mouse and an ApoE mouse
Assay type: in vivo
Experimental: [^18F]NP-59 was injected into a control BL6 mouse and an ApoE mouse of similar weight. Equivalent activities were injected into each mouse, and PET images taken approximately 60 minutes after injection are shown in FIG. 1. The images are PET maximal intensity projection images in the oblique coronal plane to obtain relevant anatomic structures. In the upper right-hand corner of each image are axial images through the carotid artery.

CC(C)CCC[C@@H](C)[C@H]1CCC2C3C[C@@H](C[18F])C4=C(CC[C@H](O)C4)C3CC[C@@]21C (stereo partly drawn) [[^18F]NP-59]
differential uptake between the mice (PET) (ApoE mouse (atherosclerotic disease) vs control BL6 mouse, equivalent activities injected, PET approximately 60 minutes after injection): higher uptake in the ApoE mouse
background uptake (PET) (ApoE mouse vs BL6 mouse of similar weight, identical amounts of tracer injected): higher background uptake
organs showing uptake of the compound (PET images) (BL6 and ApoE mice, PET approximately 60 minutes after injection): uptake of the compound in the liver, adrenal glands, and liver
